Assay results reported in paper PMC9079959, “Substituted spirooxindole derivatives as potent anticancer agents through inhibition of phosphodiesterase 1” (RSC Advances, 2018).
Where two headings read alike, the source gives them in different places.

Experiments:
HCT-116 cells = assay: MTT cytotoxicity assay, colorectal cancer cell line HCT-116; assay type: cell-based; settings: for SI (selectivity index): IC50 normal (VERO-B) / IC50 cancer (HCT-116)
Experimental: (§1) The cytotoxic activity of the compounds was tested against different mammalian cancer cells, prostate carcinoma cells (PC-3), hepatocellular carcinoma (HepG2) and colon cancer cells (HCT-116). African green monkey kidney cells (Vero-B) were used as normal cells to study the selectivity towards the cancer cells. The cell lines were obtained from the American Type Culture Collection (ATCC). The cells were cultivated at 37 °C and 10% CO2 in DMEM (Lonza, Germany) medium supplemented with 10% fetal bovine serum (Lonza, Germany), 100 IU ml^−1 penicillin and 100 μg ml^−1 streptomycin (Lonza, Germany). […] The spirooxindole derivatives were solubilized in DMSO and stored at −20 °C. The viability of the cells was quantified using 3-(4,5-dimethylthiazol-2-yl)-2,5-diphenyl tetrazolium bromide (MTT), which measures the activity of mitochondrial succinate dehydrogenase in viable cells.[45,46]
(§2) The cells were seeded in 96-well plates at a concentration of 5 × 10^4 cells per ml (100 μl per well). […] DMSO was used as a negative control (0.1%). The cells were incubated for 48 h. After that, 15 μl of MTT (5 mg ml^−1 in PBS) was added to each well and incubated for another 4 h. The formazan crystals were solubilized by 100 μl of acidified SDS solution (10% SDS/0.01 N HCl in PBS). The absorbance was measured after 14 h of incubation at 37 °C and under 5% CO2 at 570 nm by using a BioTek microplate reader. Each experiment was repeated 3 times and a standard deviation was calculated (SD±). […] The growth of the cells was monitored and the images were acquired by Gx microscopes (GXMGXD202 Inverted Microscope) at 10× magnification.

HepG2 cells = assay: MTT cytotoxicity assay, hepatocellular carcinoma HepG2; assay type: cell-based; settings: for IC50: Homo sapiens, HepG2; for SI (selectivity index): IC50 normal (VERO-B) / IC50 cancer (HepG2)
Experimental: as §1, §2

PC-3 cells = assay: MTT cytotoxicity assay, prostate cancer cell line PC-3; assay type: cell-based; settings: for SI (selectivity index): IC50 normal (VERO-B) / IC50 cancer (PC-3)
Experimental: as §1, §2

Vero-B cells = assay: MTT cytotoxicity assay, normal cells Vero-B; assay type: cell-based, African green monkey; settings: 48 h
Experimental: as §1, §2

[1] = Homo sapiens, HCT-116, MTT, 48 h, ± SD of 3 experiments, read-out: HCT-116 (IC50)
[2] = Homo sapiens, HCT-116, MTT, 48 h, read-out: HCT-116 (IC50, μg ml^−1)
[3] = MTT, 48 h, ± SD of 3 experiments, read-out: HepG2 (IC50)
[4] = MTT, 48 h, read-out: HepG2 (IC50, μg ml^−1)
[5] = Homo sapiens, PC-3, MTT, 48 h, ± SD of 3 experiments, read-out: PC-3 (IC50)
[6] = Homo sapiens, PC-3, MTT, 48 h, read-out: PC-3 (IC50, μg ml^−1)

SMILES | IC50 (HCT-116 cells; [1]) | IC50 (HCT-116 cells; [2]) | SI (selectivity index) (HCT-116 cells) | IC50 (HepG2 cells; [3]) | IC50 (HepG2 cells; [4]) | SI (selectivity index) (HepG2 cells) | IC50 (PC-3 cells; [5]) | IC50 (PC-3 cells; [6]) | IC50 (Vero-B cells; Chlorocebus sabaeus, Vero B) | melting point | SI (selectivity index) (PC-3 cells) | HCT-116 (IC50, μg ml^−1) (HCT-116 cells; MTT, 48 h) | IC50 (HCT-116 cells; MTT, 48 h, ± SD of 3 experiments, read-out: HCT-116 (IC50)) | HepG2 (IC50, μg ml^−1) (HepG2 cells; MTT, 48 h) | PC-3 (IC50, μg ml^−1) (PC-3 cells; MTT, 48 h) | IC50 (PC-3 cells; MTT, 48 h, ± SD of 3 experiments, read-out: PC-3 (IC50)) | IC50 (Vero-B cells)
O=C(c1c[nH]c2ccccc12)[C@@H]1[C@@H](c2ccc(C(F)(F)F)cc2)[C@@H]2CCCN2[C@]12C(=O)Nc1ccccc12 [4k] | 9 ± 0.5 µM | 4.6 µg/mL | 2.4 | 10 ± 1.25 µM | 5.2 µg/mL | 2.2 | 9 ± 0.2 µM | 4.6 µg/mL | 22 µM | 153 to 155 °C | – | – | – | – | – | – | –
O=C(c1c[nH]c2ccccc12)[C@@H]1C(c2ccc(Cl)cc2)[C@@H]2CCCN2[C@@]12C(=O)Nc1ccccc12 (stereo partly drawn) [4c, (2′R,3S,7a′S)-1′-(4-Chlorophenyl)-2′-(1H-indole-3-carbonyl)-1′,2′,5′,6′,7′,7a′-hexahydrospiro[indoline-3,3′-pyrrolizin]-2-one] | 20 ± 1.5 µM | 9.6 µg/mL | 1.1 | 8 ± 0.5 µM | 3.8 µg/mL | 2.8 | 11.8 ± 1.3 µM | 5.7 µg/mL | 22 µM | 165 to 167 °C | 1.9 | – | – | – | – | – | –
O=C(c1c[nH]c2ccccc12)[C@@H]1C(c2cccc(F)c2)[C@@H]2CCCN2[C@@]12C(=O)Nc1ccccc12 (stereo partly drawn) [4h, (2′R,3S,7a′S)-1′-(3-Fluorophenyl)-2′-(1H-indole-3-carbonyl)-1′,2′,5′,6′,7′,7a′-hexahydrospiro[indoline-3,3′-pyrrolizin]-2-one] | 15 ± 1.4 µM | 7 µg/mL | 1.2 | 14 ± 0.22 µM | 6.5 µg/mL | 1.3 | 11.5 ± 11.5 µM | 5.4 µg/mL | 18 µM | 149 to 151 °C | 1.6 | – | – | – | – | – | –
Cc1ccc(C2[C@@H](C(=O)c3c[nH]c4ccccc34)[C@]3(C(=O)Nc4ccccc43)N3CCC[C@@H]23)cc1 (stereo partly drawn) [4b, (2′R,3S,7a′S)-2′-(1H-Indole-3-carbonyl)-1′-(p-tolyl)-1′,2′,5′,6′,7′,7a′-hexahydrospiro[indoline-3,3′-pyrrolizin]-2-one] | 21 ± 2 µM | 9.7 µg/mL | 1.2 | 11.8 ± 2 µM | 5.4 µg/mL | 2.2 | 16.3 ± 2 µM | 7.5 µg/mL | 26 µM | 174 to 176 °C | 1.6 | – | – | – | – | – | –
COc1ccc(C2[C@@H](C(=O)c3c[nH]c4ccccc34)[C@]3(C(=O)Nc4ccccc43)N3CCC[C@@H]23)cc1 (stereo partly drawn) [4e, (2′R,3S,7a′S)-2′-(1H-Indole-3-carbonyl)-1′-(4-methoxyphenyl)-1′,2′,5′,6′,7′,7a′-hexahydrospiro[indoline-3,3′-pyrrolizin]-2-one] | 26 ± 2 µM | 12.4 µg/mL | 1 | 17.3 ± 3 µM | 8.3 µg/mL | 1.5 | 15.5 ± 2 µM | 7.4 µg/mL | 26 µM | 122 to 124 °C | 1.7 | – | – | – | – | – | –
Cc1cccc(C2[C@@H](C(=O)c3c[nH]c4ccccc34)[C@]3(C(=O)Nc4ccccc43)N3CCC[C@@H]23)c1 (stereo partly drawn) [4i, (2′R,3S,7a′S)-2′-(1H-Indole-3-carbonyl)-1′-(m-tolyl)-1′,2′,5′,6′,7′,7a′-hexahydrospiro[indoline-3,3′-pyrrolizin]-2-one] | 7 ± 0.2 µM | 3.2 µg/mL | 2.1 | 7 ± 0.4 µM | 3.2 µg/mL | 2.1 | 7 ± 0.6 µM | 3.2 µg/mL | 15 µM | 141 to 143 °C | – | – | – | – | – | – | –
O=C(c1c[nH]c2ccccc12)[C@@H]1C(c2ccc(F)cc2)[C@@H]2CCCN2[C@@]12C(=O)Nc1ccccc12 (stereo partly drawn) [4g, (2′R,3S,7a′S)-1′-(4-Fluorophenyl)-2′-(1H-indole-3-carbonyl)-1′,2′,5′,6′,7′,7a′-hexahydrospiro[indoline-3,3′-pyrrolizin]-2-one] | 16 ± 1 µM | 7.4 µg/mL | 2.5 | 20 ± 2 µM | 9.3 µg/mL | 2 | 16.3 ± 30 µM | 7.6 µg/mL | 40 µM | 144 to 146 °C | 2.5 | – | – | – | – | – | –
N.N.[Cl][Pt][Cl] [Cisplatin, cis-diamineplatinum(II) dichloride, reference compound] | – | – | – | – | – | – | – | – | – | – | – | 3.8 µg/mL | 12.6 ± 0.4 µM | 1.7 µg/mL | 1.5 µg/mL | 5 ± 0.45 µM | 5 µM
O=C(c1c[nH]c2ccccc12)[C@@H]1C(c2cccc(Br)c2)[C@@H]2CCCN2[C@@]12C(=O)Nc1ccccc12 (stereo partly drawn) [4j, (2′R,3S,7a′S)-1′-(3-Bromophenyl)-2′-(1H-indole-3-carbonyl)-1′,2′,5′,6′,7′,7a′-hexahydrospiro[indoline-3,3′-pyrrolizin]-2-one] | 9 ± 0.5 µM | 4.7 µg/mL | 2.2 | 8 ± 1 µM | 4.2 µg/mL | 2.5 | 7 ± 0.2 µM | 3.7 µg/mL | 20 µM | 110 to 112 °C | – | – | – | – | – | – | –
O=C(c1c[nH]c2ccccc12)[C@@H]1C(c2ccco2)[C@@H]2CCCN2[C@@]12C(=O)Nc1ccccc12 (stereo partly drawn) [4m, (2′R,3S,7a′S)-1′-(Furan-2-yl)-2′-(1H-indole-3-carbonyl)-1′,2′,5′,6′,7′,7a′-hexahydrospiro[indoline-3,3′-pyrrolizin]-2-one] | 29 ± 2 µM | 12.7 µg/mL | 1.7 | 40 ± 5 µM | 17.5 µg/mL | 1.3 | 26 ± 1.7 µM | 11.3 µg/mL | 50 µM | 172 to 174 °C | 1.9 | – | – | – | – | – | –
